The subject of one experiment is S. flexneri 5a M90T. Put plainly: MIC in tryptic soy broth, S. flexneri. In kind it is cell-based, Shigella flexneri. Conditions: Shigella flexneri, 5AM90T, read-out: MIC (μM) TSB. Summed up: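 Broth microdilution was used throughout. UPEC, P. aeruginosa and S. aureus were tested in CA-MHB buffered with 40 mM HEPES (pH 7.4); UPEC was additionally tested in LPM with 30 mM MES (pH 5.5). S. flexneri was grown in TSB. All determinations were run in triplicate.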

The subject of another experiment is non-growing UPEC CFT073. Put plainly: Dilution-regrowth assay (screen, hit validation, dose-response) on stationary-phase UPEC. In kind it is cell-based, Escherichia coli. Conditions: for Regrowth: OD600 after dilution into drug-free medium (mean): OD600 at 6h or 8h; for EC50: Escherichia coli. Put shortly:
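Regrowth (OD600 after 6 h, 37 °C) of diluted non-growing CFT073, following 24 h compound treatment of 24 h stationary cultures, defines activity relative to untreated control. Screen at 20 µM, validation at 20, 10, 5 µM (duplicates), dose–response in three biological replicates fitted by five-parameter logistic.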

Experiment [1] relates to intracellular S. flexneri 5a M90T in TC7 cells. Kind of experiment: microbe, parasite or virus in culture. Conditions: for IC50: Shigella flexneri, TC7, 14 h. In kind it is cell-based, Shigella flexneri. From the text: Nonproliferating bacterial pathogens frequently inhabit intracellular environments, but establishing relevant infection models for high-throughput testing is challenging. Therefore, we firstly tested ability of the hit compounds to cross the eukaryotic cytoplasmic membrane barrier and inhibit growth of S. flexneri within the cytoplasm of the TC7 human colon adenocarcinoma cell line[59]. To this end, we developed a new, fluorescence-based method that enables real-time monitoring of growth of intracellular Shigella. We used S. flexneri 5a M90T strain producing the AfaE adhesin that enhances bacterial adhesion to epithelial cells and allows synchronization of invasion. The strain was further modified to constitutively express super-folder GFP (sfGFP), which enables monitoring bacterial growth by fluorescence measurement. The epithelial cells were grown to confluence and infected with bacteria at an MOI (multiplicity of infection) of 50. […] Following bacterial adhesion and invasion, the cells were incubated with varying concentrations of the hit compounds and intracellular bacterial growth was tracked by measuring green fluorescence.
The cells were split using trypsin, seeded in 96-well plates for infection, and grown to confluence, corresponding to approximately 40,000 cells per well.
A single colony of S. flexneri was inoculated into TSB supplemented with 50 μg/ml spectinomycin and incubated overnight at 37°C with agitation. The overnight culture was diluted 1:200 in fresh TSB, and the bacteria were grown at 37 °C until the OD600 reached 0.3–0.4, corresponding to approximately 2 × 10^7 CFU/ml. Bacteria were pelleted by centrifugation, washed twice with sterile PBS, and resuspended in infection solution (serum-free DMEM supplemented with 20 mM HEPES, pH 7.4). Just prior to infection, the medium was withdrawn, and the cells were washed twice with sterile PBS. The bacterial inoculum (MOI 50, 2 × 10^7 CFU/ml) was added to all wells except the no-infection control. The plates were incubated at room temperature for 15 min to allow bacterial adhesion, followed by a 1 h incubation at 37 °C with 5% CO2 to facilitate bacterial invasion.
Twofold serial dilutions of the drugs were prepared in infection solution containing 50 μg/ml gentamicin in a 96-well plate. After the invasion period, the bacterial inoculum was removed, and the serial dilutions of the drugs were added to the wells, except for the no-drug control. […] […] The experiments were performed in triplicates on separate days.
Statistical significance of the drug effects was assessed using a one-way ANOVA followed by Dunnett’s test, comparing each treatment to the drug-free control. Statistical significance of the differences in chemical characteristics between the hit compounds and the Prestwick library was assessed using a Mann–Whitney test. Statistical significance was set at P ≤ 0.05. A five-parameter logistic equation was used for asymmetric sigmoidal curve fitting and for EC50 and IC50 determination. The Venn diagram in Fig. 1F was prepared using BioVenn web application. Characteristics of the chemical and physical properties of Prestwick library compounds were obtained from Supplementary Table S1 from reference. Characteristics of the hit compounds not included in the Prestwick library were retrieved from the PubChem database.

Setting [2] is: LPM pH 5.5 (red curve), medium assigned by comparison with Dataset 1, read-out: EC50 (regrowth inhibition curve, Fig. S4).
[3] abbreviates: TC7 cells infected with GFP-expressing S. flexneri, 14 h treatment.
The mark [4] stands for this setting: E. coli, pH 7.4, regrowth delay of non-growing bacteria, 1:4 CA-MHB, 24 h treatment, OD600 6 h after 2500-fold dilution, read-out: EC50.

The structures appear in SMILES notation. In brackets after ≈: the same amount, converted by molar mass. Where two headings read alike, the source gives them in different places. Where only a bound is given, the exact number is not on record here.

In the case of `CO[C@H]1/C=C/O[C@@]2(C)Oc3c(C)c(O)c4c(O)c(c(/C=N/N5CCN(C6CCCC6)CC5)c(O)c4c3C2=O)NC(=O)/C(C)=C\C=C\[C@H](C)[C@H](O)[C@@H](C)[C@@H](O)[C@@H](C)[C@H](OC(C)=O)[C@@H]1C` [Rifapentine], the MIC in the experiment with S. flexneri 5a M90T worked out at 16 µM (≈ 14 µg/mL). The “Regrowth: OD600 after dilution into drug-free medium (mean)” value amounted to 0.612 in the experiment on non-growing UPEC CFT073 (E. coli in 1:4 CA-MHB (pH 7.4), concentration 0.25); 0.591 in the experiment with non-growing UPEC CFT073 (E. coli in 1:4 CA-MHB (pH 7.4), concentration 0.5); 0.589 with non-growing UPEC CFT073 (E. coli in 1:4 CA-MHB (pH 7.4), concentration 1); 0.581 with non-growing UPEC CFT073 (E. coli in 1:4 CA-MHB (pH 7.4), concentration 2.5); 0.558 with non-growing UPEC CFT073 (E. coli in 1:4 CA-MHB (pH 7.4), concentration 5); 0.549 with non-growing UPEC CFT073 (E. coli in 1:4 CA-MHB (pH 7.4), concentration 10). The “Regrowth: OD600 after dilution into drug-free medium (mean)” value in the experiment on non-growing UPEC CFT073 (E. coli in 1:4 CA-MHB (pH 7.4), concentration 30) amounted to 0.527; in the experiment on non-growing UPEC CFT073 (E. coli in LPM (pH 5.5), concentration 0.25), 0.548; in the experiment on non-growing UPEC CFT073 (E. coli in LPM (pH 5.5), concentration 0.5), 0.505; in the experiment with non-growing UPEC CFT073 (E. coli in LPM (pH 5.5), concentration 1), 0.379; in the experiment on non-growing UPEC CFT073 (E. coli in LPM (pH 5.5), concentration 2.5), 0.232; in the experiment with non-growing UPEC CFT073 (E. coli in LPM (pH 5.5), concentration 5), 0.178. For the same compound, the “Regrowth: OD600 after dilution into drug-free medium (mean)” value was 0.148 in the experiment with non-growing UPEC CFT073 (E. coli in LPM (pH 5.5), concentration 10) and 0.112 with non-growing UPEC CFT073 (E. coli in LPM (pH 5.5), concentration 30). Besides, the concentration giving a half-maximal response (EC50) is 1.16 µM in the experiment with non-growing UPEC CFT073 (E. coli, LPM pH 5.5, regrowth delay of non-growing bacteria, 24 h treatment, OD600 6 h after 2500-fold dilution, read-out: EC50) and 1.19 µM with non-growing UPEC CFT073 (setting [2]). In experiment [1], this compound showed an IC50 of 3.09 µM. Also, in experiment [1] (setting [3]), the “Fluorescence intensity (RFU), Mean, 0.0625 x MIC” value was 10012.8 RFU. Further, the “Fluorescence intensity (RFU), Mean, 0.125 x MIC” value in experiment [1] (setting [3]) worked out at 10655.7 RFU. The “Fluorescence intensity (RFU), Mean, 0.25 x MIC” value in experiment [1] (setting [3]) was found to be 3668.46 RFU. In experiment [1] (setting [3]), the “Fluorescence intensity (RFU), Mean, 0.5 x MIC” value was 1616.31 RFU. The “Fluorescence intensity (RFU), Mean, 2 x MIC” value in experiment [1] (setting [3]) stood at 1321.39 RFU. Besides, the “Fluorescence intensity (RFU), Mean, 4 x MIC” value in experiment [1] (setting [3]) was 1243.06 RFU. Besides, the “Fluorescence intensity (RFU), Mean, 8 x MIC” value in experiment [1] (setting [3]) worked out at 1167.19 RFU. Further, the “Fluorescence intensity (RFU), Mean, 16 x MIC” value in experiment [1] (setting [3]) is listed as 915.083 RFU. Moreover, the “Fluorescence intensity (RFU), Mean, MIC” value in experiment [1] (setting [3]) is on record as 1458.03 RFU.
In the case of `CC[C@H]1OC(=O)[C@@](C)(F)C(=O)[C@H](C)[C@@H](O[C@@H]2O[C@H](C)C[C@H](N(C)C)[C@H]2O)[C@](C)(OC)C[C@@H](C)C(=O)[C@H](C)[C@H]2N(CCCCn3cc(-c4cccc(N)c4)nn3)C(=O)O[C@]12C` [Solithromycin], the MIC in the experiment on S. flexneri 5a M90T stood at 8 µM (≈ 6.76 µg/mL). Further, the EC50 in the experiment on non-growing UPEC CFT073 (setting [4]) stood at 0.288 µM. Further, in experiment [1] (S. flexneri MIC in TSB versus intracellular IC50), the “MIC:IC50 ratio” value is listed as more than 2. It took 1.68 µM to reach half-maximal inhibition in experiment [1] (IC50). In experiment [1] (setting [3]), the “Fluorescence intensity (RFU), Mean, 0.0625 x MIC” value is 9882.71 RFU; the “Fluorescence intensity (RFU), Mean, 0.125 x MIC” value is recorded as 9214.08 RFU; the “Fluorescence intensity (RFU), Mean, 0.25 x MIC” value amounted to 4637.62 RFU; the “Fluorescence intensity (RFU), Mean, 0.5 x MIC” value was found to be 2156.75 RFU. For the same compound, in experiment [1] (setting [3]), the “Fluorescence intensity (RFU), Mean, 2 x MIC” value was 1563.03 RFU; the “Fluorescence intensity (RFU), Mean, 4 x MIC” value was found to be 1560.69 RFU; the “Fluorescence intensity (RFU), Mean, 8 x MIC” value amounted to 1548.25 RFU; the “Fluorescence intensity (RFU), Mean, 16 x MIC” value worked out at 1546 RFU. Besides, the “Fluorescence intensity (RFU), Mean, MIC” value in experiment [1] (setting [3]) is recorded as 1837.61 RFU. Further, in experiment [1] (TC7 cells infected with GFP-expressing S. flexneri, 14 h treatment, 32 x MIC), the “Fluorescence intensity (RFU), Mean, 32 x MIC” value worked out at 1533.19 RFU.
For `CCCCC(CC)CNC(=N)NC(=N)NCCCCCCNC(=N)NC(=N)NCC(CC)CCCC` (stereo not drawn) [Alexidine], the MIC in the experiment with S. flexneri 5a M90T is 1 µM (≈ 0.509 µg/mL). Moreover, the “Regrowth, OD600 at 6h or 8h after dilution into drug-free medium (average)” value amounted to 0.643 in the experiment with non-growing UPEC CFT073 (E. coli in 1:4 CA-MHB (pH 7.4), drug concentration 0.25); 0.630 in the experiment with non-growing UPEC CFT073 (E. coli in 1:4 CA-MHB (pH 7.4), drug concentration 0.5); 0.631 with non-growing UPEC CFT073 (E. coli in 1:4 CA-MHB (pH 7.4), drug concentration 1); 0.636 in the experiment with non-growing UPEC CFT073 (E. coli in 1:4 CA-MHB (pH 7.4), drug concentration 2.5); 0.622 in the experiment on non-growing UPEC CFT073 (E. coli in 1:4 CA-MHB (pH 7.4), drug concentration 5); 0.568 in the experiment on non-growing UPEC CFT073 (E. coli in 1:4 CA-MHB (pH 7.4), drug concentration 10). The “Regrowth, OD600 at 6h or 8h after dilution into drug-free medium (average)” value with non-growing UPEC CFT073 (E. coli in 1:4 CA-MHB (pH 7.4), drug concentration 30) is 0.074; in the experiment on non-growing UPEC CFT073 (E. coli in LPM (pH 5.5), drug concentration 0.25), 0.604; in the experiment with non-growing UPEC CFT073 (E. coli in LPM (pH 5.5), drug concentration 0.5), 0.591; in the experiment with non-growing UPEC CFT073 (E. coli in LPM (pH 5.5), drug concentration 1) it was 0.602; in the experiment on non-growing UPEC CFT073 (E. coli in LPM (pH 5.5), drug concentration 2.5) it was 0.604; with non-growing UPEC CFT073 (E. coli in LPM (pH 5.5), drug concentration 5), 0.576. Moreover, the “Regrowth, OD600 at 6h or 8h after dilution into drug-free medium (average)” value in the experiment with non-growing UPEC CFT073 (E. coli in LPM (pH 5.5), drug concentration 10) amounted to 0.067; in the experiment on non-growing UPEC CFT073 (E. coli in LPM (pH 5.5), drug concentration 30) it was 0.069. Besides, the EC50 came to 23.4 µM in the experiment on non-growing UPEC CFT073 (1:4 CA-MHB pH 7.4 (black curve), medium assigned by comparison with Dataset 1, read-out: EC50 (regrowth inhibition curve, Fig. S4)); 15.6 µM in the experiment with non-growing UPEC CFT073 (setting [4]); 7.18 µM in the experiment with non-growing UPEC CFT073 (setting [2]). Also, in the experiment with non-growing UPEC CFT073 (regrowth delay and killing, Figs. 2 and 3), the “activity against non-growing UPEC in LPM (pH 5.5) compared to 1:4 CA-MHB (pH 7.4)” value is on record as “potentiated by the low pH”.

The record behind these values is PMC11992225, “Antibacterial compounds against non-growing and intracellular bacteria” (npj Antimicrobials and Resistance, 2025).
